IC50 data for 20 compounds are collected here from patent US11866430B2, “Naphthyridinone compounds useful as T cell activators” (priority 2018, dated 2024).

As a reminder, the IC50 is the concentration that gives 50% inhibition.

Assay [1] deals with OT-1 antigen-specific CD8+ T cells with MC38 tumor cells. Put plainly: Murine Cytotoxic T Lymphocyte Assay (IFN-γ). The format is cell-based, mouse. The text has this: An antigen-specific cytolytic T-cell (CTL) assay was developed to evaluate functionally the ability of DGKα and DGKζ inhibitors to enhance effector T cell mediated tumor cell killing activity. CD8+ T-cells isolated from the OT-1 transgenic mouse recognize antigen presenting cells, MC38, that present the ovalbumin derived peptide […]. Recognition of the cognate antigen initiates the cytolytic activity of the OT-1 antigen-specific CD8+ T cells.
Functional CTL cells were generated as follows: OT-1 splenocytes from 8-12 week old mice were isolated and expanded in the presence of the […] peptide at 1 μg/mL and mIL2 at 10 U/mL. After three days, fresh media with mIL2 U/mL was added. On day 5 of the expansion, the CD8+ T cells were isolated and ready for use. Activated CTL cells may be stored frozen for 6 months. […] The cells were washed (3×) with fresh media to remove excess peptide. Finally, CTL cells that were pretreated with DGK inhibitors for 1 hour in a 96-well U bottom plate were combined with the antigen loaded MC38 tumor cells at a 1:10 ratio. The cells were then spun at 700 rpm for 5 min and placed in an incubator overnight at 37° C. After 24 hours, the supernatant was collected for analysis of IFN-γ cytokine levels by AlphaLisa purchased from Perkin Elmer.

Assay [2] has as its system Jurkat AP1-luciferase Reporter. The experiment in a line: DGK AP1-Reporter Assay. The class given is cell-based. In short, it runs like this:
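Jurkat cells carrying a lentiviral AP1-luciferase reporter received 30 nl compound per well for 20 min at 37 °C and 5% CO2. They were then stimulated for 6 h with anti-CD3 solution at 0.4 μg/mL; reference wells received 4 μg/mL and unstimulated wells medium only. Readout was Steady-Glo luciferase luminescence (RLU).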
(Reporter assays use an easily measured gene product as a stand-in for the process of interest.)

For another assay, the target named is human DGKζ (Homo sapiens (Human), UniProt Q13574). Put plainly: DGKζ assay (detergent/lipid micelle substrate). The class given is biochemical. The method, boiled down: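 Full-length human DGKα or DGKζ (C-terminal His tag, Sf9-expressed; 20 nM 4× stock) was preincubated 10 min at room temperature with PS/DAG octyl glucoside micelles in MOPS pH 7.5 buffer with MgCl2, CaCl2 and DTT. It was then started with ATP (300 uM addition) and run for 1 hr, with ADP-Glo luminescence read-out.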
Sequence of human DGKζ (Q13574 other isoform, or with tags, fused parts or gaps): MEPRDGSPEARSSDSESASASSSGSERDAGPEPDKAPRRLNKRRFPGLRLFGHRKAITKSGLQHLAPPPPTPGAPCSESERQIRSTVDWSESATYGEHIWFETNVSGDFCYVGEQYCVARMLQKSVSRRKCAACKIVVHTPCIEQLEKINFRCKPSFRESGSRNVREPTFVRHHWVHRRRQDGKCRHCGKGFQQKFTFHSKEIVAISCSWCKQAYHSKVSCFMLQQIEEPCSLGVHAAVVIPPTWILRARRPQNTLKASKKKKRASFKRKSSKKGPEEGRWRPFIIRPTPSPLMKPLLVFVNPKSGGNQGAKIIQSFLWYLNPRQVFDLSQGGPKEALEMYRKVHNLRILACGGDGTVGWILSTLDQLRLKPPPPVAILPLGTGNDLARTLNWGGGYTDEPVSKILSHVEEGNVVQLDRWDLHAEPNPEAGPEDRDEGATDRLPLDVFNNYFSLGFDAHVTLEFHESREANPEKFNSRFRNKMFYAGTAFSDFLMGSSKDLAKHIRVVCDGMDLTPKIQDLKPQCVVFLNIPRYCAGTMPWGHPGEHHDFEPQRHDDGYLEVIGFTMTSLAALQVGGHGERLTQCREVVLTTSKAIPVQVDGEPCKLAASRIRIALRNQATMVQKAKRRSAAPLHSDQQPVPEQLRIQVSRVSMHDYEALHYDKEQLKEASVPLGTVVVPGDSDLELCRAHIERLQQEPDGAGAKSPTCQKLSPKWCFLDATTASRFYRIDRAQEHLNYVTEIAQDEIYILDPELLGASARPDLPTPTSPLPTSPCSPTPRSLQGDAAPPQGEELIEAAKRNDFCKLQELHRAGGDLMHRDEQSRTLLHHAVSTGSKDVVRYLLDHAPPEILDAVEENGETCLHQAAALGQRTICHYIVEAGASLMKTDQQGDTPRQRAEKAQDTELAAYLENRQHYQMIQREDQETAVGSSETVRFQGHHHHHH

[3] abbreviates: Mus musculus, MC-38, read-out: msCTL INF-γ IC50, murine CTL IFN-γ (table title reads INF-γ Whole Blood Normalized Agonist EC50).
Where [4] appears, read: Homo sapiens, Jurkat, read-out: API-Luciferase Reporter IC50, Table 3.
The mark [5] stands for this setting: detergent/lipid micelle substrate, read-out: DGKζ IC50.
[6] abbreviates: Homo sapiens, Jurkat, read-out: DGKAP1 Lucif Reporter IC50, Table 4.
Setting [7] is: read-out: DGKAP1 Lucif Reporter IC50, Table 4.
Where [8] appears, read: read-out: msCTL INF-γ IC50, murine CTL IFN-γ (table title reads INF-γ Whole Blood Normalized Agonist EC50).

Like-named read-outs stand apart in the source and are kept apart here.

On to `COc1ccc2c(n1)c(N1CCN(C(c3ccc(F)cc3)c3ccc(F)cc3OC)CC1)c(C#N)c(=O)n2C` (racemic) [Example 412, 4-{4-[(4-fluoro-2-methoxyphenyl)(4-fluorophenyl)methyl]piperazin-1-yl}-6-methoxy-1-methyl-2-oxo-1,2-dihydro-1,5-naphthyridine-3-carbonitrile], for which, in assay [1] (setting [3]), the IC50 worked out at 360 nM.

As to `COc1ccccc1C(c1ccc(F)cc1)N1CCN(c2c(C#N)c(=O)n(C)c3ccc(Br)nc23)CC1` (single isomer, unassigned) [Example 13, 6-bromo-4-{4-[(4-fluorophenyl)(2-methoxyphenyl)methyl]piperazin-1-yl}-1-methyl-2-oxo-1,2-dihydro-1,5-naphthyridine-3-carbonitrile], the results for the IC50 (in assay [2] (setting [4]); at human DGKζ (setting [5]); in assay [1] (setting [3])) were 1300 nM, over 240 µM and 640 nM, respectively.

As to `COc1cc(F)ccc1C(c1ccc(F)cc1)N1CCN(c2c(C#N)c(=O)n(C)c3ccc(Br)nc23)CC1` (single isomer, unassigned) [Example 17, 6-bromo-4-{4-[(4-fluoro-2-methoxyphenyl)(4-fluorophenyl)methyl]piperazin-1-yl}-1-methyl-2-oxo-1,2-dihydro-1,5-naphthyridine-3-carbonitrile], the IC50 in assay [2] (setting [4]) was 350 nM; in assay [2] (setting [6]) it was 1330 nM; on human DGKζ (setting [5]), 180 µM; in assay [1] (setting [3]), 190 nM.

Regarding `CC(c1ccc(F)cc1)N1CCN(c2c([N+](=O)[O-])c(=O)n(C)c3ccc(C#N)nc23)CC1` (single isomer, unassigned) [Example 44, 8-(4-(1-(4-fluorophenyl)ethyl)piperazin-1-yl)-5-methyl-7-nitro-6-oxo-5,6-dihydro-1,5-naphthyridine-2-carbonitrile], the results for the IC50 (in assay [2] (setting [4]); at human DGKζ (setting [5]); in assay [1] (setting [3])) were 350 nM, 8.9 µM and 130 nM, respectively.

For `C#CCn1c(=O)c([N+](=O)[O-])c(N2CCN(C(c3ccc(F)cc3)c3ccc(F)cc3O)CC2)c2nc(C#N)ccc21` (single isomer, unassigned) [Example 121, 8-(4-((4-fluoro-2-hydroxyphenyl)(4-fluorophenyl)methyl)piperazin-1-yl)-7-nitro-6-oxo-5-(prop-2-yn-1-yl)-5,6-dihydro-1,5-naphthyridine-2-carbonitrile], the IC50 stood at 340 nM in assay [2] (read-out: API-Luciferase Reporter IC50, Table 3); 0.18 µM at human DGKζ (setting [5]); 50 nM in assay [1] (setting [3]).

Regarding `COc1cc(F)ccc1C(c1ccc(F)cc1)N1CCN(c2c([N+](=O)[O-])c(=O)n(C)c3ccc(C#N)nc23)CC1` (single isomer, unassigned) [Example 124, 8-(4-((4-fluoro-2-methoxyphenyl)(4-fluorophenyl)methyl)piperazin-1-yl)-5-methyl-7-nitro-6-oxo-5,6-dihydro-1,5-naphthyridine-2-carbonitrile], the IC50 in assay [2] (setting [4]) came to 100 nM; in assay [2] (setting [6]) it was 570 nM; against human DGKζ (DGKζ IC50, detergent/lipid micelle substrate), 0.9 µM; in assay [1] (setting [3]), 40 nM.

For `CC(C)C(c1ccc(F)cc1)N1CCN(c2c(C#N)c(=O)n(C)c3ccc(Cl)nc23)CC1` (single isomer, unassigned) [Example 315, 6-chloro-4-{4-[1-(4-fluorophenyl)-2-methylpropyl]piperazin-1-yl}-methyl-2-oxo-1,2-dihydro-1,5-naphthyridine-3-carbonitrile], the IC50 in assay [2] (setting [6]) was 10000 nM; at human DGKζ (setting [5]) it was over 240 µM.

For `Cn1c(=O)c(C#N)c(N2CCN(C(CC(C)(C)C)c3ccc(F)cc3)CC2)c2nc(Cl)ccc21` (single isomer, unassigned) [Example 377, 6-chloro-4-{4-[1-(4-fluorophenyl)-3,3-dimethylbutyl]piperazin-1-yl}-1-methyl-2-oxo-1,2-dihydro-1,5-naphthyridine-3-carbonitrile], in assay [2] (setting [6]), the IC50 amounted to 10000 nM.

Regarding `Cn1c(=O)c(C#N)c(N2CCN(C(CC(C)(C)C)c3ccc(F)cc3)CC2)c2nc(Cl)ccc21` (single isomer, unassigned) [Example 378, 6-chloro-4-{4-[1-(4-fluorophenyl)-3,3-dimethylbutyl]piperazin-1-yl}-1-methyl-2-oxo-1,2-dihydro-1,5-naphthyridine-3-carbonitrile], the IC50 in assay [2] (setting [7]) and in assay [1] (setting [3]) was 10000 nM in each case.

With `Cn1c(=O)c(C#N)c(N2CCN(C(c3ccc(F)cc3)C3CCC3)CC2)c2nc(Cl)ccc21` (single isomer, unassigned) [Example 382, 6-chloro-4-{4-[cyclobutyl(4-fluorophenyl)methyl]piperazin-1-yl}-1-methyl-2-oxo-1,2-dihydro-1,5-naphthyridine-3-carbonitrile], in assay [2] (setting [6]), the IC50 was 10000 nM.

Regarding `Cn1c(=O)c(C#N)c(N2CCN(C(c3ccc(F)cc3)C3CCC3)CC2)c2nc(Cl)ccc21` (single isomer, unassigned) [Example 383, 6-chloro-4-{4-[cyclobutyl(4-fluorophenyl)methyl]piperazin-1-yl}-1-methyl-2-oxo-1,2-dihydro-1,5-naphthyridine-3-carbonitrile], the IC50 in assay [2] (setting [7]) and in assay [1] (setting [3]) was 10000 nM each time.

Consider `CC(c1ccc(F)cc1)N1CCN(c2c(C#N)c(=O)n(C)c3ccc(Cl)nc23)CC1` (single isomer, unassigned) [Example 387, 6-chloro-4-{4-[1-(4-fluorophenyl)ethyl]piperazin-1-yl}-1-methyl-2-oxo-1,2-dihydro-1,5-naphthyridine-3-carbonitrile], for which the values for the IC50 (in assay [2] (setting [6]); at human DGKζ (setting [5])) were 3330 nM and over 240 µM, respectively.

On to `CC(c1ccc(F)cc1)N1CCN(c2c(C#N)c(=O)n(C)c3ccc(Cl)nc23)CC1` (single isomer, unassigned) [Example 388, 6-chloro-4-{4-[1-(4-fluorophenyl)ethyl]piperazin-1-yl}-1-methyl-2-oxo-1,2-dihydro-1,5-naphthyridine-3-carbonitrile], for which the values for the IC50 (in assay [2] (setting [7]); at human DGKζ (setting [5])) were 3330 nM and over 240 µM, respectively.

With `COc1cc(F)ccc1C(c1ccc(F)cc1)N1CCN(c2c(C#N)c(=O)n(C)c3ccc(C#N)nc23)CC1` (single isomer, unassigned) [Example 406, 8-{4-[(4-fluoro-2-methoxyphenyl)(4-fluorophenyl)methyl]piperazin-1-yl}-5-methy-6-oxo-5,6-dihydro-L5-naphthyridine-2,7-dicarbonitrile], the IC50 in assay [1] (setting [8]) turned out to be 160 nM.

As to `COc1cc(F)ccc1C(c1ccc(F)cc1)N1CCN(c2c(C#N)c(=O)n(C)c3ccc(C#N)nc23)CC1` (single isomer, unassigned) [Example 407, 8-{4-[(4-fluoro-2-methoxyphenyl)(4-fluorophenyl)methyl]piperazin-1-yl}-5-methy-6-oxo-5,6-dihydro-L5-naphthyridine-2,7-dicarbonitrile], the IC50 in assay [1] (setting [8]) amounted to 40 nM.

`Cn1c(=O)c(C#N)c(N2CCN(C(c3ccc(F)cc3)c3ccccc3O)CC2)c2nc(C#N)ccc21` (stereo not drawn) [Example 11, 8-{4-[(4-fluorophenyl)(2-hydroxyphenyl)methyl]piperazin-1-yl}-5-methyl-6-oxo-5,6-dihydro-1,5-naphthyridine-2,7-dicarbonitrile]: the IC50 turned out to be 80 nM in assay [2] (setting [4]) and 4 µM on human DGKζ (setting [5]).

Regarding `CCCCn1c(=O)c([N+](=O)[O-])c(N2CCN(C(c3ccccc3)c3ccccc3)CC2)c2ncccc21` [Example 177, 4-(4-benzhydrylpiperazin-1-yl)-1-butyl-3-nitro-1,5-naphthyridin-2(1H)-one], the IC50 in assay [2] (setting [6]) and in assay [1] (setting [3]) was 10000 nM throughout.

Turning to `Cn1c(=O)c(C#N)c(N2CCN(Cc3cccc4ccccc34)CC2)c2nc(C#N)ccc21` [Example 404, 5-methyl-8-{4-[(naphthalen-1-yl)methyl]piperazin-1-yl}-6-oxo-5,6-dihydro-1,5-naphthyridine-2,7-dicarbonitrile], the IC50 was found to be 63 µM on human DGKζ (setting [5]) and 9840 nM in assay [1] (setting [3]).

For the compound `Cn1c(=O)c([N+](=O)[O-])c(N2CCN(Cc3cccc4ccccc34)CC2)c2nc(C#N)ccc21` [Example 415, 5-methyl-8-{4-[(naphthalen-1-yl)methyl]piperazin-1-yl}-7-nitro-6-oxo-5,6-dihydro-1,5-naphthyridine-2-carbonitrile], the IC50 in assay [2] (setting [6]) stood at 420 nM; in assay [1] (setting [3]) it was 10000 nM.

For `Cn1c(=O)c(C#N)c(N2CCN(C(C)(C)c3ccc(F)cc3)CC2)c2nc(Cl)ccc21` [Example 425, 6-chloro-4-{4-[2-(4-fluorophenyl)propan-2-yl]piperazin-1-yl}-1-methyl-2-oxo-1,2-dihydro-1,5-naphthyridine-3-carbonitrile], the IC50 on human DGKζ (setting [5]) is over 240 µM; in assay [1] (setting [3]) it was 2980 nM.
